Paper PMC6385020 (Molecules, 2019)

How the values were obtained:
[1] = tested on: all the tested G4s structures; set-up: method as in PMID 21528379; details: cited from earlier work
[2] = tested on: F-21-T (DNA, G4) GGGTTAGGGTTAGGGTTAGGG; assay: FRET-melting; details: 10 mM KCl, 90 mM LiCl; 10 mM lithium cacodylate pH 7.3; 1 µM compound, 0.2 µM DNA
[3] = tested on: F-myc-T (DNA, G4) TGAGGGTGGGTAGGGTGGGTAA; assay: FRET-melting; details: 1 mM KCl, 99 mM LiCl; 10 mM lithium cacodylate pH 7.3; 1 µM compound, 0.2 µM DNA
[4] = tested on: F-21CTA-T (DNA, G4) AGGGCTAGGGCTAGGGCTAGGG; assay: FRET-melting; details: 1 mM KCl, 99 mM LiCl; 10 mM lithium cacodylate pH 7.3; 1 µM compound, 0.2 µM DNA
[5] = tested on: F-CEB25-WT-T (DNA, G4) AGGGTGGGTGTAAGTGTGGGTGGGT; assay: FRET-melting; details: 1 mM KCl, 99 mM LiCl; 10 mM lithium cacodylate pH 7.3; 1 µM compound, 0.2 µM DNA
[6] = tested on: c-myc* (DNA, G4) TGAGGGTGGGTAGGGTGGGTAA; assay: denaturing gel electrophoresis, 3'-exonuclease digestion; details: 100 mM KCl or KClO4; covalent; platination at T20/A21 and G2/A3; 18 h, 32 °C, 10 µM DNA
[7] = tested on: 22AG (DNA, G4) AGGGTTAGGGTTAGGGTTAGGG; assay: G4-FID, thiazole orange displacement; details: 100 mM KCl; 10 mM lithium cacodylate pH 7.3, 1% DMSO; thiazole orange displaced; 1 µM compound, 0.25 µM DNA
[8] = tested on: c-myc (myc22) (DNA, G4) TGAGGGTGGGTAGGGTGGGTAA; assay: G4-FID, thiazole orange displacement; details: 100 mM KCl; 10 mM lithium cacodylate pH 7.3, 1% DMSO; thiazole orange displaced; 1 µM compound, 0.25 µM DNA
[9] = tested on: 21CTA (DNA, G4) AGGGCTAGGGCTAGGGCTAGGG; assay: G4-FID, thiazole orange displacement; details: 100 mM KCl; 10 mM lithium cacodylate pH 7.3, 1% DMSO; thiazole orange displaced; 1 µM compound, 0.25 µM DNA
[10] = tested on: CEB25-WT (DNA, G4) AAGGGTGGGTGTAAGTGTGGGTGGGT; assay: G4-FID, thiazole orange displacement; details: 100 mM KCl; 10 mM lithium cacodylate pH 7.3, 1% DMSO; thiazole orange displaced; 1 µM compound, 0.25 µM DNA
[11] = tested on: ds26 (DNA, duplex) CAATCGGATCGAATTCGATCCGATTG; assay: G4-FID, thiazole orange displacement; details: 100 mM KCl; 10 mM lithium cacodylate pH 7.3, 1% DMSO; thiazole orange displaced; 1 µM compound, 0.25 µM DNA

CN1/C(=C/C=C/c2cc[n+](CCC[N+](C)(C)C)c3ccccc23)Sc2ccccc21.[I-].[I-] [TO-PRO-3]
affinity constants towards all the tested G4s structures (Ka) [1]: ~ 10^6 M^−1

[C-]#Cc1ccccc1.[Pt+2].c1ccc(-c2cccc(-c3ccccn3)n2)nc1
binding [2]: no | binding [3]: no | binding [4]: no | binding [5]: no

[Cl-].[Pt+2].c1ccc(-c2cccc(-c3ccccn3)n2)nc1
ΔTm [2]: < 10 °C | ΔTm [3]: < 10 °C | ΔTm [4]: < 10 °C | ΔTm [5]: < 10 °C | binding [6]: yes

[Cl-].[Pt+2].c1cc(-c2ccc3ccccc3n2)nc(-c2ccc3ccccc3n2)c1
% TO displacement [7]: > 80% | % TO displacement [8]: > 80% | % TO displacement [9]: > 80% | % TO displacement [10]: > 80% | % TO displacement [11]: < 20%
